Source: patent publication US11377427B2, “Triazoles for regulating intracellular calcium homeostasis” (UNIVERSIDAD DEL PAIS VASCO, priority 2016, dated 2022)
Each block holds one compound with its values, some of them ahead of it.

Key:
[1] = test system: left ventricle of a rat heart; conditions: concentrations of 10^-6 M; in vitro; without affecting left ventricular heart rate or pressure; cited from earlier work
[2] = molecular target: T1, RyR1-calstabin1 interaction (Homo sapiens, UniProt P21817+P62942); experiment: RyR1-calstabin1 interaction by in situ PLA in human myotubes under SIN1 nitro-oxidative stress; format: cell-based; conditions: pre-treated 12 hours at 150 nM; SIN1 5 mM 30 minutes; FIG. 3
T1 construct: endogenous in cells; host or cells: LHCN-M2 human myotubes (differentiated for 9 days)
Protocol: This assay was carried out in human control myotubes LHCN-M2 after 9 days in differentiation medium. Said myotubes were pre-treated for 12 hours with compounds AHK1 and AHK2 at a concentration of 150 nM. After treatment, the myotubes were subjected to peroxynitrite-induced nitro-oxidative stress by means of the addition of SIN1 (5 mM) for 30 minutes. RyR1-calstabin colocalization was analyzed by means of the in situ proximity ligation technique (in situ PLA) for which Sigma's Duolink II Network Fluorescence Kit and RyR1- and calstabin 1-specific antibodies were used. This technique allows detecting the exact location of two antigens located at a distance less than 40 nm from one another. To determine RyR1-calstabin-1 colocalization, 3 photographs were quantified for each condition with about 9 myotubes per field, using Image J computer software (http://rsb.info.nih.gov/ij/download.html). The colocalization area in each image was normalized to the myosin expression area, which was determined by means of immunofluorescence with a fluorescein-conjugated specific antibody.

mdx mice [3] = experiment: Isoproterenol-induced cardiomyopathy in mdx mice (Evans Blue uptake); format: in vivo, mouse; conditions: four-month old mdx mice; 5-week treatment, 0.25 mg/mL in drinking water; FIG. 8
Protocol: The myocardium of the four-month old dystrophic mdx mice is highly susceptible to mechanical stress and the compound isoproterenol induces cardiomyopathy in these mice (FIG. 8). Cardiomyocyte sarcolemma integrity was determined by means of measuring the uptake of Evans Blue dye that accumulates in cardiomyocytes with membrane damage. Evans Blue was administered 24 hours before extracting the hearts at a concentration of 10 mg/ml by means of intraperitoneal injection (10 μl/g of body weight). Damage with isoproterenol was carried out by means of 3 sequential intraperitoneal injections of beta-isoproterenol (350 ng/g of body weight) 18, 20 and 22 hours after administering Evans Blue in order to determine the degree of muscle damage. Cell-death derived regeneration was determined in muscle cryosections by means of quantifying the percentage of central nuclei, using standard immunofluorescence techniques for detecting collagen IV and cell nuclei.

[4] = test system: human control myotubes LHCN-M2; experiment: In vitro toxicity in human myotubes, CytoTox 96 colorimetric assay; format: cell-based; conditions: 24 hours of incubation
Protocol: These assays were carried out in human control myotubes LHCN-M2 after 14 days in differentiation medium. To determine the toxicity of the different analyzed compounds, particularly AHK1 and AHK2 according to the invention, these compounds were added to the culture medium for 24 hours at 37° C. at different concentrations (0-2 mM). For comparison purposes, the same assay was performed by adding reference compound S-107. Cell viability was determined by means of Cytotox 96 (Promega) colorimetric assay following instructions in the manual.

[5] = test system: fibers isolated from mouse flexor digitorum brevis muscle (dystrophic MDX fibers); experiment: Baseline intracellular calcium levels in mouse muscle fibers (Fura 2-AM); format: cell-based; conditions: 150 nM, overnight treatment; FIG. 2
Protocol: Fibers isolated from mouse flexor digitorum brevis muscle were cultured overnight in the presence or absence of compounds AHK1 and AHK2 at a concentration of 150 nM. Baseline intracellular calcium levels were evaluated by means of incubating the fibers with Fura 2-AM ratiometric fluorochrome (4 μM) and pluronic acid (0.02%) for 30 minutes at 37° C., in the culture medium. The fibers were viewed with a high-resolution digital camera and intracellular [Ca^2+] was estimated by means of a 340 nm/380 nm excitation ratio.

mdx mice [6] = experiment: Grip strength of dystrophic mdx mice; format: in vivo, mouse; conditions: 0.25 mg/mL in drinking water, one-month old mdx mice
Protocol: One-month old male dystrophic mdx mice supplied by Jackson Laboratory (https://www.jax.org/strain/001801) were used. The biological assays for measuring the effect of the Ahulken (AHK) compounds on muscle function were performed with one-month old mice, whereas the in vivo assays for determining the effect on the heart and CNS were performed with four-month old mice. The one-month old mice were treated with compound AHK1 or compound AHK2 for 5 weeks, where said compounds were administered in drinking water at a concentration of 0.25 mg/mL. The muscle strength of the front paws was measured every week using a grip strength meter and the obtained value was normalized by the body weight of the animal. To that end, the indications described in the TREAT-NMD Neuromuscular Network protocol (http://www.treat-nmd.eu/downloads/file/sops/dmd/MDX/DMD_M.2.2.001.pdf) were followed.

mdx mice [7] = experiment: Exacerbated defense response (freezing) after acute stress in mdx mice; format: in vivo, mouse; conditions: four-month old mdx mice; five-week treatment, 0.25 mg/mL in drinking water; FIG. 7
Protocol: To determine the effect of the compounds according to the invention on the heart and CNS, four-month old mice were treated for 5 weeks with compound AHK2 in drinking water at a concentration of 0.25 mg/mL. The four-month old mdx mice show an exacerbated defense response after acute stress which is independent of motor, cardiac and respiratory deficiencies, and is controlled by central mechanisms (FIG. 7). Acute stress was brought about by means of manual immobilizations for 15 seconds in a posture commonly used for performing intraperitoneal injections. After acute stress, the mice are monitored for 1 minute and the % of freezing time or tonic immobility periods of at least 1 second with 90% immobility sensitivity is calculated.

mdx mice [8] = experiment: Muscle degeneration/regeneration: percentage of central nuclei in muscle cryosections of mdx mice; format: in vivo, mouse; conditions: 5-week treatment of mdx mice; 0.25 mg/mL in drinking water; FIG. 5
Protocol: After concluding the 5-week treatment, the tibialis anterior muscle was obtained and processed for subsequent biochemical and immunohistological analysis to determine the degree of muscle damage. Cell-death derived regeneration was determined in muscle cryosections by means of quantifying the percentage of central nuclei using standard immunofluorescence techniques for detecting collagen IV and cell nuclei.

T1 sequence (P21817 whole entry): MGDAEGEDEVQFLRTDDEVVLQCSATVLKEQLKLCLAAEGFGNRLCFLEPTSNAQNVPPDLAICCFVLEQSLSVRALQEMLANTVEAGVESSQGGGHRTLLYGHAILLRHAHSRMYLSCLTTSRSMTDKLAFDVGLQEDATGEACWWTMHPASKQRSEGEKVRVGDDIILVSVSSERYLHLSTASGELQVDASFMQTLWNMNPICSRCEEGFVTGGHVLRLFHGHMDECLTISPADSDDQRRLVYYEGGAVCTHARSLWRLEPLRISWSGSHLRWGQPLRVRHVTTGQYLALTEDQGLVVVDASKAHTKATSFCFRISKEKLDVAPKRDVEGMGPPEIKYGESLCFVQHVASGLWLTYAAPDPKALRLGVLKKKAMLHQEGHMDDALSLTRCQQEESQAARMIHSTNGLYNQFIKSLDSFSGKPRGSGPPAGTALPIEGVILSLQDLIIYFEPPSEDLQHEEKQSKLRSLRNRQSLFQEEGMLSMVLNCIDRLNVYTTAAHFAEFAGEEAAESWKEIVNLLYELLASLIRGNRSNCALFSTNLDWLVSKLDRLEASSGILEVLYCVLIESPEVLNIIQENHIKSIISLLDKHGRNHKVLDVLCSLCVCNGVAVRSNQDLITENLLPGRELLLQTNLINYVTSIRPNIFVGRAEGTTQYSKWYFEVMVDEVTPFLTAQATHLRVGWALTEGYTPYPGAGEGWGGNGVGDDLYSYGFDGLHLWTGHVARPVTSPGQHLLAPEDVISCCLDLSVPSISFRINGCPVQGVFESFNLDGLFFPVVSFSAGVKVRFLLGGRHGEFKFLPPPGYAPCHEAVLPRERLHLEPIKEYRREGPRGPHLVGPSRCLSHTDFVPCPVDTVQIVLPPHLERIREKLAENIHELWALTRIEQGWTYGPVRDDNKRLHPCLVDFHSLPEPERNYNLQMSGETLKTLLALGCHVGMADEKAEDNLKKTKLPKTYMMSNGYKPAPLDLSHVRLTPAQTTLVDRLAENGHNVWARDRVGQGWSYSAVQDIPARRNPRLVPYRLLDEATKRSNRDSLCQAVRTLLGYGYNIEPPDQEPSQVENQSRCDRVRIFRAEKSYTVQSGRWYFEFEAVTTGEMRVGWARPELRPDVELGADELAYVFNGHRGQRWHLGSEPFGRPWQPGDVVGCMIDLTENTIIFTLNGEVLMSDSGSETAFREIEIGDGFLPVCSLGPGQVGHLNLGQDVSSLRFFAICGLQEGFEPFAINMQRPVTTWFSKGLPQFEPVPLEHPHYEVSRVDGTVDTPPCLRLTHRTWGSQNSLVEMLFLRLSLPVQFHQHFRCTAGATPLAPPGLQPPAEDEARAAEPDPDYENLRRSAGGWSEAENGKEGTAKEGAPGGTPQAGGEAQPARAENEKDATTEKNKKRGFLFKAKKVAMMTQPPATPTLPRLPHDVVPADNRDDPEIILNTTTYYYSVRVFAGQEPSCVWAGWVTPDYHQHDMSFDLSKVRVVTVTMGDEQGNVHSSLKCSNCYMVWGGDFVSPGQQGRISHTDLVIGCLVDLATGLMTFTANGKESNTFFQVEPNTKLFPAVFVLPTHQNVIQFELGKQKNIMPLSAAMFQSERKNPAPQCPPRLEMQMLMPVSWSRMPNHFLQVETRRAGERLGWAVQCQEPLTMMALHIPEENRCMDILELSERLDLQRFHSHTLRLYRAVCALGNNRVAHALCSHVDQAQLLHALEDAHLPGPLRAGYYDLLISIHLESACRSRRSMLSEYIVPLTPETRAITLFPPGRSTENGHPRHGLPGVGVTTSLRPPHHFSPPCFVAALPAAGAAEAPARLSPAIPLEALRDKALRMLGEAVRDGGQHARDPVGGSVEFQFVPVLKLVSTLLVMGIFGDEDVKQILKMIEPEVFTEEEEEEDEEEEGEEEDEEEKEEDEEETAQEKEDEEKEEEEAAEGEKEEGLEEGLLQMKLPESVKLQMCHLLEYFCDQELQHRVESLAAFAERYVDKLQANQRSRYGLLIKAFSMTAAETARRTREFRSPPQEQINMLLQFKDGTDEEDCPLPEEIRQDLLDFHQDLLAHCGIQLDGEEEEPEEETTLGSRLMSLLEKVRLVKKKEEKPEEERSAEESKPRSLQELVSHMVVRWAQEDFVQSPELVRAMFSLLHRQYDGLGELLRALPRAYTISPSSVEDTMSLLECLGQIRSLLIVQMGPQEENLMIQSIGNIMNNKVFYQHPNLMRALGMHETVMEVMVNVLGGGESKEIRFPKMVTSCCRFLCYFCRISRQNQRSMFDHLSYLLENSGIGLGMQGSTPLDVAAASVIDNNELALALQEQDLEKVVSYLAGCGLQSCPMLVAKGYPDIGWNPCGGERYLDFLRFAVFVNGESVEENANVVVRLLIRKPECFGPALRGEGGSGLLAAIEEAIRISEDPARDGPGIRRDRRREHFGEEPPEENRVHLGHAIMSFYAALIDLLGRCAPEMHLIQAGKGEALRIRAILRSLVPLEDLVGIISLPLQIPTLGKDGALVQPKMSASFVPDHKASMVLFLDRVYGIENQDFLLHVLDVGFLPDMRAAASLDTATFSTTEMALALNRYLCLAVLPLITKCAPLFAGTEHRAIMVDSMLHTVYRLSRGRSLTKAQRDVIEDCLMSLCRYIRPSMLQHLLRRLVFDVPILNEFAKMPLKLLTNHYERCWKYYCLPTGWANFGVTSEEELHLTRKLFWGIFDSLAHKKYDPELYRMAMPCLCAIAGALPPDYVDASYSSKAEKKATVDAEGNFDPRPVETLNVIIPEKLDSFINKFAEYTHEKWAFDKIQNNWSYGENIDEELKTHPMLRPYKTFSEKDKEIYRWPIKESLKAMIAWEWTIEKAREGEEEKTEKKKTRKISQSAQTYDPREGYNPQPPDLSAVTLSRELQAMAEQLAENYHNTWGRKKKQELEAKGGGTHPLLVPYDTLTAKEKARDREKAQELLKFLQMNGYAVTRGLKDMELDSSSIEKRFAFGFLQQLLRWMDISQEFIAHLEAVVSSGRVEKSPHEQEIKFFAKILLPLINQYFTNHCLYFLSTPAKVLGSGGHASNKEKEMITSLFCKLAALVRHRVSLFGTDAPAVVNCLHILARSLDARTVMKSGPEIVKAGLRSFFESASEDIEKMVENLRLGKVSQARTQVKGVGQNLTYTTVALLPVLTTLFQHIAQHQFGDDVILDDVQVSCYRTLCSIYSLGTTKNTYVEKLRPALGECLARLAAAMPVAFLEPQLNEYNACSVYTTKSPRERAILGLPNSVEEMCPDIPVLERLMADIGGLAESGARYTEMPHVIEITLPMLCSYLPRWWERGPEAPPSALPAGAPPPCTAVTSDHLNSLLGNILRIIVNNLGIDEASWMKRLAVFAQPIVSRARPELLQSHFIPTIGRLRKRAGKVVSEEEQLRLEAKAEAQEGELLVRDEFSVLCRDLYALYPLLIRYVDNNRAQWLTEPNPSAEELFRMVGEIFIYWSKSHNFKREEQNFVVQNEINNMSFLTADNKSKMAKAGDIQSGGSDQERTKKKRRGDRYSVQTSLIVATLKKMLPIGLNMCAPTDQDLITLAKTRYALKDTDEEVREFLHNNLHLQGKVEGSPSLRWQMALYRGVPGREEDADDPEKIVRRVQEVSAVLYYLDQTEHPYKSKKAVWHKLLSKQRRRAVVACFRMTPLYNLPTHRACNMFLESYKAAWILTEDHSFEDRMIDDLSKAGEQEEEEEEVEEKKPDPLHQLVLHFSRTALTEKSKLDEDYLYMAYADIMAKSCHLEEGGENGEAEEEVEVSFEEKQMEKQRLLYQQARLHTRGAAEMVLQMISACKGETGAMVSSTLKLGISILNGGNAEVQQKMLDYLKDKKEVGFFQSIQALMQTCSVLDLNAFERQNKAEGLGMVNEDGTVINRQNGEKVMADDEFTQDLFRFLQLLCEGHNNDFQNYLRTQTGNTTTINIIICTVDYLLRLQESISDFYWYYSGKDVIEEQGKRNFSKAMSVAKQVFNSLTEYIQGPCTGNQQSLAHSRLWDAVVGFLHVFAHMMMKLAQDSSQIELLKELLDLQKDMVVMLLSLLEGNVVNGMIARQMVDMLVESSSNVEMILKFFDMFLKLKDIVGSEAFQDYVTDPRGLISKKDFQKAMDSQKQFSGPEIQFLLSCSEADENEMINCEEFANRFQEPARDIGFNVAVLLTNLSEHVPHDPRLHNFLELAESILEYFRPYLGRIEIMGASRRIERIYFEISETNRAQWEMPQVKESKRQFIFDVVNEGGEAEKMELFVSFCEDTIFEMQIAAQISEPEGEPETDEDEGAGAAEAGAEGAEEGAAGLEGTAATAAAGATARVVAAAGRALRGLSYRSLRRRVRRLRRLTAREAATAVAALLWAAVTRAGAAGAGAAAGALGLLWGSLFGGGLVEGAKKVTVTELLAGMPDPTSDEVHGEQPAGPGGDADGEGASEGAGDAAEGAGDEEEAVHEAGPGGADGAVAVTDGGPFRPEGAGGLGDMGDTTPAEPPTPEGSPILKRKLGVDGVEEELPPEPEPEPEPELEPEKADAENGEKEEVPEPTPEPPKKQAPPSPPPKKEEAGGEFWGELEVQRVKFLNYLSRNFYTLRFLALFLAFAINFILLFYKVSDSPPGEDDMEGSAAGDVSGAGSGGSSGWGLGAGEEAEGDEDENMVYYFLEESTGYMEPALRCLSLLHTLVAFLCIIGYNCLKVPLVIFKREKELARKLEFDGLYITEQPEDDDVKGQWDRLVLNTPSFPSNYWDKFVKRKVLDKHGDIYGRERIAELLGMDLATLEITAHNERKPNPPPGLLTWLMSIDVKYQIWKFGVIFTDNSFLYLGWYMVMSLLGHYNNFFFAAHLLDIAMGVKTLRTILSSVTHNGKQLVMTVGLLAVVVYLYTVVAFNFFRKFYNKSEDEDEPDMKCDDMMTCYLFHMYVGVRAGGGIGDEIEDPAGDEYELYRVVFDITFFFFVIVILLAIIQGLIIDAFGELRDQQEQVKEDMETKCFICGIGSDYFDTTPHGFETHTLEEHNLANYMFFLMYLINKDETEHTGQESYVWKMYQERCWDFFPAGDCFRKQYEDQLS
T1 sequence (P62942 2-108 limits assumed): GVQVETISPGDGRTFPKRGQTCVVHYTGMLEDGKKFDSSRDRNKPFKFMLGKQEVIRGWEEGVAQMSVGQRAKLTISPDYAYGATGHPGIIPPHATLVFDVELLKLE

Compound: 4-[3-(4-benzylpiperidinyl)-propanoyl]-2,3,4,5-tetrahydro-1,4-benzothiazepine [JTV-519]
- adrenaline- and caffeine-induced myocardial necrosis [1]: inhibits

Compound: COc1ccc(SCc2cn(CCN(C)C)nn2)cc1 [AHK2, 1-[2-(N,N-dimethylamino)ethyl]-4-[4-(methoxy)phenylthiomethyl]-1H-1,2,3-triazole]
- dissociation of the RyR1-Calst1 complex in the presence of SIN1 [2]: partially prevented
- cardiomyocyte sarcolemma integrity (Evans Blue uptake) (mdx mice [3]): increases
- isoproterenol-induced damage of the myocardium (mdx mice [3]): protects the myocardium from isoproterenol-induced damage
- in vitro acute toxicity against human myotubes ([4]; concentrations between 10 nM and 2 mM, FIG. 1): do not show in vitro acute toxicity
- intracellular calcium levels at rest in MDX fibers [5]: brought intracellular calcium levels back to the control levels
- grip strength compared to untreated littermates (mdx mice [6]; after 2 weeks of treatment): increased significantly
- increase of muscle strength (mdx mice [6]; after 5 weeks of treatment, FIG. 4): 20%
- exacerbated defense response-related CNS phenotype (% of freezing time after acute stress) (mdx mice [7]): significantly improves
- percentage of central nuclei (mdx mice [8]): significantly reduced

- melting point: 163 to 170 °C
Compound: COc1ccc(SCc2cn(CC(=O)O)nn2)cc1 [Example 11, 1-carboxymethyl-4-[4-(methoxy)phenylthiomethyl]-1H-1,2,3-triazole]

- melting point: 106 to 115 °C
Compound: COc1cccc(S(=O)(=O)Cc2cn(CC(=O)O)nn2)c1 [Example 22, 1-carboxymethyl-4-[3-(methoxy)phenylsulfonylmethyl]-1H-1,2,3-triazole]

- melting point: 146 to 148 °C
Compound: O=C(O)Cn1cc(CSc2cccc(Cl)c2)nn1 [Example 23, 1-carboxymethyl-4-[3-(chloro)phenylthiomethyl]-1H-1,2,3-triazole]

Compound: COc1ccc2c(c1)CN(C)CCS2 [Example S-107, reference compound]
- cellular toxicity ([4]; concentration of 1 mM): 100%
